Where a name gives a salt, the structure may show the parent alone.
Assays:
[1] = test system: PC12 cells; experiment: PC12 cell serum withdrawal model (MTS assay); type: cell-based; conditions: control cells = 100%
From the text: Serum withdrawal is a cytotoxic environmental challenge that results in cell death in cultured cell lines as well as in primary cells of various tissue origins, including nerve cells. In particular, pheochromocytoma (PC) 12 cells have been widely employed as an in vitro neuronal cell model for a wide variety of neurodegenerative and cell death related disorders (Muriel, et al, Mitochondrial free calcium levels (Rhod-2 fluorescence) and ultrastructural alterations in neuronally differentiated PC12 cells during ceramide-dependent cell death, J. Comp. Neurol., 2000, 426(2), 297-315; Dermitzaki, et al, Opioids transiently prevent activation of apoptotic mechanisms following short periods of serum withdrawal, J. Neurochem., 2000, 74(3), 960-969; Carlile, et al, Reduced apoptosis after nerve growth factor and serum withdrawal: conversion of tetrameric glyceraldehyde-3-phosphate dehydrogenase to a dimer, Mol. Pharmacol., 2000, 57(1), 2-12).
PC12 cells were cultured in sterile media (RPMI 1640) supplemented with 10% heat-inactivated horse serum and 5% fetal bovine serum (FBS). The culture medium also contained Penicillin-Streptomycin-Neomycin antibiotic (50µg, 50µg, 100µg, respectively). Medium was exchanged every other day and the cells were passed in log phase near confluence.
The control cells were cultured in regular media without any treatment. An enantiomer of Formula 7 or Formula 8 (10µM) was mixed well in the medium and then applied to the cells. For the 2 day assay, an enantiomer of Formula 7 or Formula 8 (10µM) was only applied to the cells once at the time of serum withdrawal. For the 7 day assay, an enantiomer of Formula 7 or Formula 8 (10. mu.M) was applied to the cells at the time of serum withdrawal and every 48 hr thereafter when cells were changed with fresh new serum-free medium. In the serum withdrawal group, the cells were cultured in serum-free medium with no additional enantiomer of Formula 7 or Formula 8. Cell survival was determined by the 3-(4,5-dimethylthiazol-2-yl)-5-(3-carboxy-methoxyphenyl)-2-(4-sulfophenyl)-2H-tetrazolium inner salt (MTS) assay at 2 or 7 days after serum withdrawal.
At the end of the experiment, cells were washed with fresh medium and incubated with MTS solution in a humidified 37° C. with 5% CO2 incubator for 1.5 hr. After the incubation period, the cells were immediately analyzed using a Softmax program (Molecular Devices). […] The assay is based on the cellular conversion of the tetrazolium salt, MTS, into a formazan that is soluble in tissue culture medium and measured directly at 490 nm in 96-well assay plates. The absorbance is directly proportional to the number of living cells in culture. The arbitrary absorbance reading in control cells is expressed as 100% survival rate.

[2] = test system: transient cerebral ischemia (MCAO); experiment: Transient cerebral ischemia middle cerebral artery occlusion (MCAO) rat model; type: in vivo; conditions: MK 801 3 mg/kg i.p.; N=12
Description: The enantiomer of Formula 7 was investigated in the transient cerebral ischemia middle cerebral artery occlusion (MCAO) rat model (as described in Nagasawa H. and Kogure K., Stroke, 1989, 20, 1037; and, Zea Longa E., Weinstein P. R., Carlson S, and Cummins R., Stroke, 1989, 20, 84) using male Wistar rats at 10 and 100 mg/kg (i.v.). MK 801 (Dizocilpine maleate; CAS Registry number 77086-22-7, a commercially available neuroprotectant compound) was used as a positive control (3 mg/kg, i.p.).
Rats (n=12) were randomly allocated to one of four experimental groups and were anesthetized. Blood flow from the internal carotid artery, anterior cerebral artery and posterior cerebral artery into the middle cerebral artery was blocked by this procedure. One hour after blockage, animals were treated over a 1 hour period with vehicle (administered i.v. over the one hour period), control (administered as a single i.p. dose at the start of the one hour period) and two doses of the enantiomer of Formula 7 (administered i.v. over the one hour period). Two hours after blockage, reperfusion was performed.
The animals were sacrificed and […] coronal sections of each brain were prepared. One in every forty sections (i.e. every […]) from the front to the occipital cortex was used to quantify the extent of the cerebral lesion. Slides were prepared using sections stained (according to the Nissl procedure) with cresyl violet and were examined under a light microscope.
Regional ischemic surface areas in the coronal sections of individual rats were determined according to the presence of cells with morphological changes. The areas of neuronal injury or infarction were measured and then added. The cortex and striatum volume were calculated for each animal (total ischemic surface area×0.8 mm (thickness)).
The mean volumes (.+−.S.E.M.) for each animal randomly assigned to the four experimental groups were compared using one-way ANOVA (one way ANOVA is a statistical method which compares 3 or more unmatched groups) followed by Dunnett's t-test (both methods incorporated in Statview 512+software, BarinPower, Calabasas, Calif., USA).

Row | Structure (SMILES) | 2 Day Survival Rate ([1]; 10 µM applied once at serum withdrawal) | 7 Day Survival Rate ([1]; 10 µM at serum withdrawal and every 48 hr) | Mean Infarct Volume ± S.E.M., Cortex Volume [2] | Mean Infarct Volume ± S.E.M., Striatum [2] | Mean Infarct Volume ± S.E.M., Total [2]
1 | NC(=O)OC[C@H](OC(N)=O)c1ccccc1Cl [Formula 8] | 66.4 ± 5.4^1% | 85.2 ± 0.6^2% | – | – | –
2 | C[C@]12N[C@H](Cc3ccccc31)c1ccccc12 [MK 801, Dizocilpine maleate, reference compound] | – | – | 95.8 ± 24.5^1 mm^3 | 56.1 ± 5.3^2 mm^3 | 151.9 ± 28.7^1 mm^3

Source: patent US20080103198A1, “METHODS FOR TREATMENT OF COCHLEAR AND VESTIBULAR DISORDERS” (priority 2006, published 2008)
